Here are results for one compound from ChEMBL document CHEMBL4765259, “Synthesis and biological evaluation of novel shikonin-benzo[b]furan derivatives as tubulin polymerization inhibitors targeting the colchicine binding site” (Eur J Med Chem, 2020).

Common to all, as to assay type: ADME, organism-based
The nature of series [1]: Half life in Sprague-Dawley rat at 1.5 mg/kg, iv by UPLC/MS analysis. The note with it: in vivo.
Series [2] in a line: Mean residence time (0 to infinity) in Sprague-Dawley rat at 1.5 mg/kg, iv by UPLC/MS analysis. To be noted: in vivo.
Series [3] in a line: AUC (0 to infinity) in Sprague-Dawley rat at 1.5 mg/kg, iv by UPLC/MS analysis. To be noted: in vivo. Set-up: time infinity, route intravenous, dose 1.5 mg/kg.
A short description of series [4]: Apparent volume of distribution in Sprague-Dawley rat at 1.5 mg/kg, iv by UPLC/MS analysis. To be noted: in vivo, read-out: Vz.

In the case of `COc1ccc2cc(C(=O)O[C@H](CC=C(C)C)C3=CC(=O)c4c(O)ccc(O)c4C3=O)oc2c1`, the half-life (in general, how long it takes for the measured level to halve) in series [1] is 3.81 h. In series [2], the MRT inf (usually a mean duration of stay, worked out from the concentration-time curve) was 5.12 h. In addition, the area under the curve AUC(0-inf) (in general, total exposure, with the tail of the curve extrapolated) in series [3] came out at 2160 ng·h/mL. The Vd in series [4] is 3.35 L/kg.
